Laboratory results published in patent US11547681B2, “N-acylethanolamide derivatives and uses thereof” (ELIEM THERAPEUTICS, INC., priority 2016, dated 2023).
Each block holds one compound with its values, some of them ahead of it.

Experiments:
in vitro [1] = conditions: both, human
Description: The reaction mixture, minus cofactors, was prepared as described below. The test article was added into the reaction mixture at a final concentration of 1 μM. […] An aliquot of the reaction mixture (without cofactor cocktail) was equilibrated in a shaking water bath at 37° C. for 3 minutes. The reaction was initiated by the addition of cofactor cocktail, and the mixture was incubated in a shaking water bath at 37° C. Aliquots (100 μL) were withdrawn at 0, 10, 20, 30, and 60 minutes. All samples were immediately combined with 400 uL of icecold 50/50 acetonitrile/H2O containing 0.1% formic acid and internal standard to terminate the reaction. The samples were then mixed and centrifuged to precipitate proteins. Calibration standards were prepared in matched matrix. All samples and standards were assayed by LC-MS/MS using electrospray ionization for both the dosed prodrug I-9 and the expected drug (PEA). Analytical conditions are outlined in Appendix 4-1. The test article concentration at each time point was compared to the test article concentration at time 0 to determine the percent remaining at each time point. Half-lives were calculated using GraphPad software, fitting to single-phase exponential decay equation.
(§1) Reaction mixture, minus cofactors, was prepared as described below. Test article was added into the reaction mixture at a final concentration of 1 μM. […] An aliquot of the reaction mixture (without cofactor cocktail) was equilibrated in a shaking water bath at 37° C. for 3 minutes. The reaction was initiated by the addition of cofactor cocktail, and the mixture was incubated in a shaking water bath at 37° C. Aliquots (100 μL) were withdrawn at 0, 10, 20, 30, and 60 minutes. Test article samples were immediately combined with 300 μL of ice-cold acetonitrile containing 1% formic acid. Control samples were immediately combined with 400 μL of ice-cold 50/50 acetonitrile (ACN)/dH2O containing 0.1% formic acid and internal standard to terminate the reaction. Samples were then mixed and centrifuged to precipitate proteins. Calibration standards were prepared in matched matrix. Samples and standards were assayed by LC-MS/MS using electrospray ionization for both the dosed prodrug and the expected drug (PEA). Analytical conditions are outlined in Appendix 8-1. Test article concentration at each time point was compared to test article concentration at time 0 to determine the percent remaining at each time point. Halflives were calculated using GraphPad software, fitting to a single-phase exponential decay equation.
as §1, with “for 5” for “for 3”, “minutes. Reaction” for “minutes. The reaction”, “and” for “and the”, “both” for “both the”, “Appendix 10-1.” for “Appendix 8-1.”
Reaction mixture, minus cofactors, was prepared as described below.

in vitro [2] = conditions: male, CD-1, mouse
Description: as §1
as §1, with “for 5” for “for 3”, “minutes. Reaction” for “minutes. The reaction”, “and” for “and the”, “both” for “both the”, “Appendix 10-1.” for “Appendix 8-1.”
Reaction mixture, minus cofactors, was prepared as described below. Test article was added into the reaction mixture at a final concentration of 1 μM. […] An aliquot of the reaction mixture (without cofactor cocktail) was equilibrated in a shaking water bath at 37° C. for 3 minutes. Reaction was initiated by the addition of cofactor cocktail, and the mixture was incubated in a shaking water bath at 37° C. Aliquots (100 μL) were withdrawn at 0, 10, 20, 30, and 60 minutes. Test article samples were immediately combined with 300 μL of ice-cold acetonitrile containing 1% formic acid. Control samples were immediately combined with 400 μL of ice-cold 50/50 acetonitrile (ACN)/dH2O containing 0.1% formic acid and internal standard to terminate the reaction. Samples were then mixed and centrifuged to precipitate proteins. Calibration standards were prepared in matched matrix. Samples and standards were assayed by LC-MS/MS using electrospray ionization for both dosed prodrug and expected drug (PEA). Analytical conditions are outlined in Appendix 13-1. Test article concentration at each time point was compared to test article concentration at time 0 to determine the percent remaining at each time point. Halflives were calculated using GraphPad software, fitting to a single-phase exponential decay equation.

Measured concentration of PEA (analyte) (in vitro [1]; 0 min, 1 μM): 0.021 µM
Measured concentration of PEA (analyte) (in vitro [1]; 10 min, 1 μM): 0.32 µM
Measured concentration of PEA (analyte) (in vitro [1]; 20 min, 1 μM): 0.39 µM
Measured concentration of PEA (analyte) (in vitro [1]; 30 min, 1 μM): 0.38 µM
Measured concentration of PEA (analyte) (in vitro [1]; 60 min, 1 μM): 0.38 µM
% Remaining of Initial (in vitro [1]; s9, 0 h, 1 μM): 100%
% Remaining of Initial (in vitro [1]; s9, 10 min, 1 μM): 31%
% Remaining of Initial (in vitro [1]; s9, 20 min, 1 μM): 7.0%
% Remaining of Initial (in vitro [1]; s9, 0.5 h, 1 μM): 1.8%
% Remaining of Initial (in vitro [1]; s9, 1 h, 1 μM): <1.0%
microsomal CLint at 1 μM (in vitro [1]; s9, CLint): > 69.3 µL/min/mg
half-life at 1 μM (in vitro [1]; s9, Half-life): < 10 min
Measured concentration of PEA (analyte) (in vitro [2]; 0 min, 1 μM): 0.012 µM
Measured concentration of PEA (analyte) (in vitro [2]; 10 min, 1 μM): 0.12 µM
Measured concentration of PEA (analyte) (in vitro [2]; 20 min, 1 μM): 0.19 µM
Measured concentration of PEA (analyte) (in vitro [2]; 30 min, 1 μM): 0.22 µM
Measured concentration of PEA (analyte) (in vitro [2]; 60 min, 1 μM): 0.26 µM
% Remaining of Initial (in vitro [2]; s9, 0 h, 1 μM): 100%
% Remaining of Initial (in vitro [2]; s9, 10 min, 1 μM): 65%
% Remaining of Initial (in vitro [2]; s9, 20 min, 1 μM): 45%
% Remaining of Initial (in vitro [2]; s9, 0.5 h, 1 μM): 31%
% Remaining of Initial (in vitro [2]; s9, 1 h, 1 μM): 12%
microsomal CLint at 1 μM (in vitro [2]; s9, CLint): 38.9 µL/min/mg
half-life at 1 μM (in vitro [2]; s9, Half-life): 18 min
Compound: CCCCCCCCCCCCCCCC(=O)NCCOC(=O)CCC(=O)OC(CO)CO [Compound I-8]

Concentration (μM) of analyte PEA, 0 min (in vitro [1]; 0 min, 1 μM): 0.048 µM
Concentration of analyte I-9 (in vitro [1]; 0 min, 1 μM): 0.61 µM
Concentration of analyte PEA (in vitro [1]; 0 min, 1 μM): 0.21 µM
Concentration (μM) of analyte PEA, 10 min (in vitro [1]; 10 min, 1 μM): 0.18 µM
Concentration of analyte I-9 (in vitro [1]; 10 min, 1 μM): 0.36 µM
Concentration of analyte PEA (in vitro [1]; 10 min, 1 μM): 0.50 µM
Concentration (μM) of analyte PEA, 20 min (in vitro [1]; 20 min, 1 μM): 0.23 µM
Concentration of analyte I-9 (in vitro [1]; 20 min, 1 μM): 0.099 µM
Concentration of analyte PEA (in vitro [1]; 20 min, 1 μM): 0.69 µM
Concentration (μM) of analyte PEA, 30 min (in vitro [1]; 30 min, 1 μM): 0.22 µM
Concentration of analyte I-9 (in vitro [1]; 30 min, 1 μM): 0.029 µM
Concentration of analyte PEA (in vitro [1]; 30 min, 1 μM): 0.65 µM
Concentration (μM) of analyte PEA, 60 min (in vitro [1]; 60 min, 1 μM): 0.18 µM
Concentration of analyte I-9 (in vitro [1]; 60 min, 1 μM): 0.0043 µM
Concentration of analyte PEA (in vitro [1]; 60 min, 1 μM): 0.66 µM
% Remaining of Initial (n = 1) (in vitro [1]; s9, 0 h, 1 μM): 100%
% Remaining of Initial (n = 1), 0 min (in vitro [1]; s9, 0 h, 1 μM): 100%
% Remaining of Initial (n = 1) (in vitro [1]; s9, 10 min, 1 μM): 59%
% Remaining of Initial (n = 1), 10 min (in vitro [1]; s9, 10 min, 1 μM): 28%
% Remaining of Initial (n = 1) (in vitro [1]; s9, 20 min, 1 μM): 16%
% Remaining of Initial (n = 1), 20 min (in vitro [1]; s9, 20 min, 1 μM): 5.7%
% Remaining of Initial (n = 1), 30 min (in vitro [1]; s9, 0.5 h, 1 μM): 1.2%
% Remaining of Initial (n = 1) (in vitro [1]; s9, 1 h, 1 μM): <1.0%
% Remaining of Initial (n = 1), 60 min (in vitro [1]; s9, 1 h, 1 μM): <1.0%
microsomal CLint at 1 μM (in vitro [1]; s9, CLint): > 69.3 µL/min/mg
microsomal CLint at 1 μM (in vitro [1]; s9, CLint (mL/min/mg protein)): 131 µL/min/mg
microsomal CLint at 1 μM (in vitro [1]; s9, CLint, calculated value in parentheses): 75.3 µL/min/mg
half-life at 1 μM (in vitro [1]; s9, Half-Life, calculated value in parentheses): 9.2 min
half-life at 1 μM (in vitro [1]; s9, Half-life): < 10 min
half-life at 1 μM (in vitro [1]; s9, Half-life (min)): 5.3 min
Concentration (μM) of analyte PEA, 0 min (in vitro [2]; 0 min, 1 μM): 0.0024 µM
Concentration (μM) of analyte PEA, 10 min (in vitro [2]; 10 min, 1 μM): 0.12 µM
Concentration (μM) of analyte PEA, 20 min (in vitro [2]; 20 min, 1 μM): 0.15 µM
Concentration (μM) of analyte PEA, 30 min (in vitro [2]; 30 min, 1 μM): 0.19 µM
Concentration (μM) of analyte PEA, 60 min (in vitro [2]; 60 min, 1 μM): 0.23 µM
% Remaining of Initial (n = 1), 0 min (in vitro [2]; s9, 0 h, 1 μM): 100%
% Remaining of Initial (n = 1), 10 min (in vitro [2]; s9, 10 min, 1 μM): 56%
% Remaining of Initial (n = 1), 20 min (in vitro [2]; s9, 20 min, 1 μM): 33%
% Remaining of Initial (n = 1), 30 min (in vitro [2]; s9, 0.5 h, 1 μM): 21%
% Remaining of Initial (n = 1), 60 min (in vitro [2]; s9, 1 h, 1 μM): 6.5%
microsomal CLint at 1 μM (in vitro [2]; s9, CLint (mL/min/mg protein)): 53.7 µL/min/mg
half-life at 1 μM (in vitro [2]; s9, Half-life (min)): 13 min
Compound: CCCCCCCCCCCCCCCC(=O)NCCOC(=O)CCC(=O)OCC(O)CO (stereo not drawn) [Compound I-9]
